Assay [1] concerns the target T1, Electrical (Torpedo californica) AChE (type VI-S) (Electrophorus electricus, UniProt O42275).
T1 construct: purchased Sigma-Aldrich (Steinheim, Germany) type VI-S
As to the kind of experiment: biochemical. It is filed as biochemical. How it is done: (§1) Fluka provided potassium hydroxide, sodium hydrogen carbonate, potassium dihydrogen phosphate, and dipotassium hydrogen phosphate. Sigma-Aldrich (Steinheim, Germany) provided BuChE (E.C.3.1.1.8, from equine serum), Electrical ([…]) AChE (type VI-S), acetylthiocholine iodide, 5,5⸍-dithiobis [2-nitrobenzoic acid]
(§2) In order to set the derivatives’ stock solutions, they were dissolved in the dimethyl sulfoxide (DMSO). Then, we diluted them in the absolute ethanol for obtaining 3 varying concentrations for assay. The experiments were done in triplicate for each concentration. The assay solution included […], […] of phosphate buffer (0.1M, pH = 8), […] of 5 IU/mL butryl cholinesterase solution, and […] of inhibitor. Afterwards, the product was pre-incubated at 25 ᵒC for 10 min. Then, […] of butyrylthiocholine iodide was added as the substrate to the 24 wells for starting the reaction. […] For justifying non-enzymatic reaction, we conducted assays with a blank having all components except ButChE.
Moreover, AChE took the same assay for obtaining the derivatives’ anti-AChE activity.

Assay [2] concerns the target T2, BuChE (E.C.3.1.1.8, from equine serum) (Equus caballus, UniProt P81908).
T2 construct: BuChE (E.C.3.1.1.8, from equine serum); purchased Sigma-Aldrich (Steinheim, Germany); host or cells: equine serum
The assay can be described thus: biochemical. The class given is biochemical. The method, then:
as §1
as §2, with “ButChE. […]” for “ButChE.”

[3] abbreviates: Ellman's method, average ±SD, triplicate, read-out: AChE Inhibition [IC50 (μM)].
[4] abbreviates: Ellman's method, average ±SD, triplicate, read-out: BuChE Inhibition [IC50 (μM)].
Where [5] appears, read: read-out: AChE Inhibition [IC50 (μM)].
The mark [6] stands for this setting: read-out: BuChE Inhibition [IC50 (μM)].

“Also recorded” adds a separate entry of the source. Read-outs that look alike come from different tables or passages of the source.

T1 sequence (O42275 24-633): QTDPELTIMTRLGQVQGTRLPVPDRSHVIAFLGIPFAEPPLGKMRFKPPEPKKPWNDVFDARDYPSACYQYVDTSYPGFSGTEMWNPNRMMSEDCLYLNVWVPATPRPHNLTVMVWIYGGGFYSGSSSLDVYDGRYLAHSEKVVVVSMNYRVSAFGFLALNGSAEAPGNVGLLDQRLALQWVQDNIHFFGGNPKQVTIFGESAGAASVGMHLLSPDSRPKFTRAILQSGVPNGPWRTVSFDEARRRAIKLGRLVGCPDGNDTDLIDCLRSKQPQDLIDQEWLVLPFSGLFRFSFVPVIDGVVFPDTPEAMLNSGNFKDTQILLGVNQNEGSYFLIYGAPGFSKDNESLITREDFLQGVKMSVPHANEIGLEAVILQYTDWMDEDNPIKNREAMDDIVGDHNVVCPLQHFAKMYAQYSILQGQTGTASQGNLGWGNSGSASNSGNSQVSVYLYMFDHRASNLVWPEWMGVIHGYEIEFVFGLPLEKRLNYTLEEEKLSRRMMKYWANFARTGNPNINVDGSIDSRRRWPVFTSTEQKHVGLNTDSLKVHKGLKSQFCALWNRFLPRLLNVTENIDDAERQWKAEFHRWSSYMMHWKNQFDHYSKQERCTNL
T2 sequence (P81908 whole entry): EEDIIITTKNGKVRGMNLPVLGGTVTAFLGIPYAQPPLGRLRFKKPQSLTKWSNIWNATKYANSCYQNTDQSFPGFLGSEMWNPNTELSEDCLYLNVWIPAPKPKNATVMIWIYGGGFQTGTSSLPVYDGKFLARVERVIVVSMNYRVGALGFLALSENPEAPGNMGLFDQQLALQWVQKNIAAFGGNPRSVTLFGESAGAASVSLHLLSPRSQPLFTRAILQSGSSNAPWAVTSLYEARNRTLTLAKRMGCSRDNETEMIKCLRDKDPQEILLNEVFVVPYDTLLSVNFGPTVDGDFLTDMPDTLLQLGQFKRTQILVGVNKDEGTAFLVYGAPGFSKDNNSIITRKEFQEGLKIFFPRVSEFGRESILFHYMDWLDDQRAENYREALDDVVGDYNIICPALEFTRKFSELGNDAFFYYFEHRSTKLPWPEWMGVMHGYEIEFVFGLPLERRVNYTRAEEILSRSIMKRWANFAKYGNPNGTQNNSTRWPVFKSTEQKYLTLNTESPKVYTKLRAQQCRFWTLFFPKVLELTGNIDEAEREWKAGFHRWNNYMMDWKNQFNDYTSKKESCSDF

`COc1cc2ncn(Cc3ccc[n+](Cc4ccc(C#N)cc4)c3)c(=O)c2cc1OC` [BOP-9, 1-(4-Cyanobenzyl)-3-((6,7-dimethoxy-4-oxoquinazolin-3(4H)-yl)methyl) pyridin-1-ium bromide]: the IC50 in assay [1] (setting [3]) and in assay [2] (setting [4]) was greater than 100 µM throughout.

On to `COc1cc2ncn(Cc3ccc[n+](Cc4ccccc4)c3)c(=O)c2cc1OC` [BOP-10, 1-Benzyl-3-((6,7-dimethoxy-4-oxoquinazolin-3(4H)-yl)methyl) pyridin-1-ium bromide], for which the IC50 was determined as 10.1 ± 0.28 µM in assay [1] (setting [3]) and 18.8 ± 0.34 µM in assay [2] (setting [4]).

Consider `COc1cc2ncn(Cc3ccc[n+](Cc4ccc(F)cc4)c3)c(=O)c2cc1OC` [BOP-7, 1-(4-Flourobenzyl)-3-((6,7-dimethoxy-4-oxoquinazolin-3(4H)-yl)methyl) pyridin-1-ium chloride], for which the IC50 in assay [1] (setting [5]) is 21.92 ± 0.2 µM; in assay [2] (setting [6]), greater than 100 µM.

As to `O=c1c2ccccc2ncn1Cc1ccc[n+](Cc2ccc(Cl)cc2)c1` [BOP-2, 1-(4-Chlorobenzyl)-3-((4-oxoquinazolin-3(4H)-yl)methyl) pyridin-1-ium chloride], the IC50 was determined as 47.1 ± 0.48 µM in assay [1] (setting [3]) and 29 ± 0.43 µM in assay [2] (setting [4]).

Take `COc1cc2ncn(Cc3ccc[n+](Cc4cccc(Br)c4)c3)c(=O)c2cc1OC` [BOP-6, 1-(3-Bromobenzyl)-3-((6,7-dimethoxy-4-oxoquinazolin-3(4H)-yl)methyl) pyridin-1-ium bromide]: the IC50 was 6.77 ± 0.24 µM in assay [1] (setting [3]) and 8.77 ± 0.11 µM in assay [2] (setting [4]).

On to `O=c1c2ccccc2ncn1Cc1ccc[n+](Cc2ccccc2)c1` [BOP-5, 1-Benzyl-3-((4-oxoquinazolin-3(4H)-yl)methyl) pyridin-1-ium bromide], for which the IC50 came out at 41.2 ± 0.62 µM in assay [1] (setting [3]) and 12.63 ± 0.11 µM in assay [2] (setting [4]).

On to `N#Cc1ccc(C[n+]2cccc(Cn3cnc4ccccc4c3=O)c2)cc1` [BOP-4, 1-(4-Cyanobenzyl)-3-((4-oxoquinazolin-3(4H)-yl)methyl) pyridin-1-ium bromide], for which the IC50 in assay [1] (setting [3]) and in assay [2] (setting [4]) was greater than 100 µM each time.

`O=c1c2ccccc2ncn1Cc1ccc[n+](Cc2cccc(Br)c2)c1` [BOP-1, 1-(3-Bromobenzyl)-3-((4-oxoquinazolin-3(4H)-yl)methyl) pyridin-1-ium bromide]: the IC50 in assay [1] (setting [3]) came out at 5.9 ± 0.07 µM; in assay [2], 6.76 ± 0.04 µM.

In the case of `O=c1c2ccccc2ncn1Cc1ccc[n+](Cc2ccc(F)cc2)c1` [BOP-3, 1-(4-Flourobenzyl)-3-((4-oxoquinazolin-3(4H)-yl)methyl) pyridin-1-ium chloride], the IC50 in assay [1] (setting [5]) is greater than 100 µM; in assay [2] (setting [6]) it was 70.43 ± 0.41 µM.

In the case of `COc1cc2ncn(Cc3ccc[n+](Cc4ccc(Cl)cc4)c3)c(=O)c2cc1OC.[Cl-]` [BOP-8, 1-(4-Chlorobenzyl)-3-((6,7-dimethoxy-4-oxoquinazolin-3(4H)-yl)methyl) pyridin-1-ium chloride], the IC50 was 1.11 ± 0.09 µM in assay [1] and greater than 100 µM in assay [2] (setting [4]). In addition, in assay [2] (Ellman's method), the “BuChE inhibition (result in words)” value is on record as “no inhibitory activity; also recorded: no inhibition”.

For orientation: IC50 means the concentration needed to halve the response being measured.

(Values after article PMC8045006 (Heliyon, 2021).)
